Data set [1] is described as follows: Stability to glutathione, half-life by 19F NMR.
For data set [2], the system named is healthy keratinocyte cells (HaCaT). The experiment in a line: CellTiter-Blue cell viability, HaCaT. Conditions: Homo sapiens, non-cancerous, 72 hours. The data set is classed as cell-based. Here is the method:
(§1) The anti-cancer efficacy of exemplary compounds of the application were assessed in vitro against different cancer cell lines. Cell viability was examined following treatment at various concentrations of inhibitor (0.097656-50 μM) using a CellTiter-Blue® cell viability assay. 1×10^4 cells/well were plated in 96-well assay plates in culture medium. All cells were grown in DMEM, IMDM and RPMI-1640 supplemented with 10% fetal bovine serum (FBS). In some instances, FBS was removed for periods ranging from 16-24 hours, and re-introduced with test compound addition. After 24 hrs, test compounds and vehicle controls were added to appropriate wells such that the final volume was 100 μl in each well. The cells were cultured for the desired test exposure period (72 hours) at 37° C. and 5% CO2. The assay plates were removed from 3° C. incubator and 20 μl/well of CellTiter-Blue® Reagent was added. The plates were incubated using standard cell culture conditions for 1-4 hours. Afterwards, the plates were shaken for 10 seconds and florescence was recorded at 560/590 nm using a Cytation 3 spectrophotometer. IC50 values were determined using non-linear regression analysis with GraphPad Prism 6.0 (GraphPad Software Inc.).
(The colour change of resazurin is a common sign of viable cells or microbes.)

The target in data set [3] is T1, UBA5 (Homo sapiens, UniProt Q9GZZ9).
T1 construct: Constructs of full length human UBA5 (1-404) were cloned into a pET28b(+) vector; His-SUMO (N, cleaved yes); made in house; host or cells: E. coli BL21 (DE3) RILP
The experiment in a line: Thermal shift assay of UBA5. The note with it: 50 μM I-1, 0.5 μM UBA5; without compound 46.43° C. In kind it is binding. As to the method:
SYPRO Orange protein gel stain (Sigma-Aldrich) was used to conduct thermal shift assays. This was done on a Bio-Rad C1000 Touch ThermoCycler with a CFX96 Real-Time optical unit. Final UBA5 protein concentrations of 0.5 μM were used in 50 mM HEPES, pH 7.4. UBA5 was pre-incubated with test compound I-1 for 4 hours at 30° C. Next, SYPRO orange was added to the samples for a final 5× (10 μM) concentration from the original 5000× stock. DMSO content was 5% (v/v). Heating was done in 0.5° C. increases with 30 seconds in between, from 10 to 75° C. Fluorescence intensity was measured at […] followed by excitation at […]. This emission intensity was graphed against temperature and then recorded as a first derivative curve. The temperature of the resultant curve minima provided the melting temperature (Tm) of the protein. Experiments were run in triplicates.

Data set [4] deals with primary human fibroblast cells (PHF). The experiment in a line: CellTiter-Blue cell viability, PHF. The data set is classed as cell-based. Conditions: non-cancerous, 72 hours. The gist of the method: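 Cells were seeded at 1×10^4/well, grown 24 h in FBS-supplemented medium, then exposed to compound (0.097656–50 μM) for 72 h at 37° C, 5% CO2. Viability was read by CellTiter-Blue fluorescence (560/590 nm) after 1–4 h reagent incubation, with IC50 derived by non-linear regression.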

The subject of a further data set is PL-21. The experiment in a line: Cell viability, AML PL-21. The data set is classed as cell-based. The note with it: Table 4. As to the method:
as §1, with “Inc.). […]” for “Inc.).”

A further data set relates to bromodomains. The experiment in a line: BROMOscan bromodomain screen (DiscoverX). The data set is classed as binding. The note with it: 10 μM. As to the method:
T7 phage strains displaying bromodomains were grown in parallel in 24-well blocks in an E. coli host derived from the BL21 strain. E. coli were grown to log-phase and infected with T7 phage from a frozen stock (multiplicity of infection=0.4) and incubated with shaking at 32° C. until lysis (90-150 minutes). The lysates were centrifuged (5,000×g) and filtered (0.2 μm) to remove cell debris. […] The liganded beads were blocked with excess biotin and washed with blocking buffer (SeaBlock (Pierce), 1% BSA, 0.05 Tween 20, 1 mM DTT) to remove unbound ligand and to reduce non-specific phage binding. […] Test compounds were prepared as 1000× stocks in 100% DMSO and subsequently diluted 1:25 in monoethylene glycol (MEG). The compounds were then diluted directly into the assays such that the final concentrations of DMSO and MEG were 0.1% and 2.4%, respectively. All reactions were performed in polypropylene 384-well plates in a final volume of 0.02 ml. […] The bromodomain concentration in the eluates was measured by qPCR.
I-1 test compound was tested at 10 μM, and results for primary screen binding interactions are reported as ‘% Ctrl,’ where lower numbers indicate stronger hits in the matrix. % Ctrl is calculated with the following formula:
(§2) test compound=I-1 negative control=DMSO (100% Ctrl) positive control=control compound (0% Ctrl)

The test system of the next data set is BSA, lysozyme, STAT3/5. The experiment in a line: 19F NMR screen against Cys-containing proteins. The data set is classed as binding. Conditions: 100 μM I-1, 2 hours at 37° C. As to the method: (§3) To assess potential reactivity of I-1 against Cys containing proteins, a series of ^19F NMR studies were conducted with BSA, lysozyme, STAT3, and STATS. […] All samples were prepared in 100 mM HEPES pH 7.4, and 100 μM 5-fluoro-Trp, with a final concentration of 10% D20 and 10% DMSO. The samples were incubated for 2 hours at 37° C. prior to data collection. All spectra were normalized and referenced according to the fluorine peak of 5-fluoro-Trp.

The test system of another data set is D458. Description: Cell viability, medulloblastoma D458. In kind it is cell-based. Conditions: medulloblastoma cell line. As to the method: as §1, with “Inc.). […]” for “Inc.).”
For another data set, the system named is kinases. Description: KINOMEscan kinase screen (DiscoverX). The data set is classed as binding. The note with it: 10 μM. Here is the method: For most assays, kinase-tagged T7 phage strains were grown in parallel in 24-well blocks in an E. coli host derived from the BL21 strain. E. coli were grown to log-phase and infected with T7 phage from a frozen stock (multiplicity of infection=0.4) and incubated with shaking at 32° C. until lysis (90-150 minutes). The lysates were centrifuged (6,000×g) and filtered (0.2 μm) to remove cell debris. The remaining kinases were produced in HEK-293 cells and subsequently tagged with DNA for qPCR detection. […] The liganded beads were blocked with excess biotin and washed with blocking buffer (SeaBlock (Pierce), 1% BSA, 0.05% Tween 20, 1 mM DTT) to remove unbound ligand and to reduce non-specific phage binding. […] I-1 test compound was prepared as 40× stocks in 100% DMSO and directly diluted into the assay. All reactions were performed in polypropylene 384-well plates in a final volume of 0.02 mL. […] The kinase concentration in the eluates was measured by qPCR. […]
I-1 test compound was tested at 10 μM, and results for primary screen binding interactions are reported as […] where lower numbers indicate stronger hits in the matrix. Ctrl is calculated with the following formula:
as §2

A further data set deals with AR230. The experiment in a line: Cell viability, CML AR230. In kind it is cell-based. Conditions: Table 4. As to the method:
as §1, with “Inc.). […]” for “Inc.).”

Data set [5] deals with T1, UBA5. Description: 19F NMR study of covalent modification of UBA5. In kind it is binding. The note with it: 100 μM compound, 100 μM UBA5, 2 hours at 37° C. Here is the method:
Spectra were normalized and referenced according to the fluorine peak of 5-fluoro-Trp.
as §3
To evaluate covalent modification of UBA5 by I-1, ^19F NMR studies were conducted in accordance with the procedure described in Example 80.

“Also recorded” adds a separate entry of the source.

Results on one compound are retold here after patent US20200277268A1, “PENTAFLUOROPHENYL SULFONAMIDE COMPOUNDS, COMPOSITIONS AND USES THEREOF” (DALRIADA THERAPEUTICS INC., priority 2017, published 2020).

T1 sequence (Q9GZZ9 whole entry): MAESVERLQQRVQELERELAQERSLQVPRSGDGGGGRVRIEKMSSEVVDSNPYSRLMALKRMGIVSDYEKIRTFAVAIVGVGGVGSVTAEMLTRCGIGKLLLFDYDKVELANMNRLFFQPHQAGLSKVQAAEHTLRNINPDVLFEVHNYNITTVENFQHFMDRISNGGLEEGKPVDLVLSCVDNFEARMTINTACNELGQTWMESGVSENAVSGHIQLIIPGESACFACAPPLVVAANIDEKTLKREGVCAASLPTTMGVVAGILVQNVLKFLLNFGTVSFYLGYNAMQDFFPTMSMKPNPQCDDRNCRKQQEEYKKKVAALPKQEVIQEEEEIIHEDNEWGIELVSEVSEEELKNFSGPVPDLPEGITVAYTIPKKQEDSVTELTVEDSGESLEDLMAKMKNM

The term IC50 denotes the midpoint of a concentration-inhibition curve. Higher therefore signals weaker potency in that assay. With `O=S(=O)(c1c(F)c(F)c(F)c(F)c1F)N(Cc1ccc(F)cc1)C1CC1` [Compound I-1, N-cyclopropyl-2,3,4,5,6-pentafluoro-N-(4-fluorobenzyl)benzenesulfonamide], the “increase in T1/2 as compared to Batabulin” value in [1] was “greater than 7 fold”. Besides, the IC50 came out at 12.5 µM in data set [2]; 3.4 µM in data set [4]; 3.5 µM in the data set with PL-21; 2.2 µM in the data set with D458; 4.1 µM in the data set with AR230. In addition, at UBA5 [3], the “melting temperature (Tm) of UBA5 with compound” value was determined as 44.33 °C. For the same compound, the “competitive binding / inhibition of 32 bromodomain targets” value with bromodomains is “negligible competitive binding; also recorded: does not inhibit”. The “reactivity towards Cys-containing proteins (free fluoride release)” value in the data set with BSA, lysozyme, STAT3/5 was “no significant fluoride release; also recorded: unreactive”. The “competitive binding / inhibition of kinase targets” value in the data set with kinases is given as “negligible competitive binding; also recorded: does not inhibit”. The “covalent modification of UBA5 (free fluoride detection)” value at UBA5 [5] is “Fluoride was released; also recorded: covalently modifies UBA5”.
